The source of these data is patent US10729659B2, “Nanogel-mediated drug delivery” (The Cleveland Clinic Foundation, priority 2012, dated 2020).

For series [1] the following is noted: cited from earlier work.
In series [2] the test system is MDA-MB 231 cells. Kind of series: Physical characterization of exosomes from DAC treated cells. It is filed as cell-based, human. Conditions: exosomes from cells treated with DAC 0.5 μM, 24 h. As for the experimental part: Exosome isolation protocol: MDA-MB 231 cells were grown in DMEM supplemented with 10% fetal bovine serum (FBS), and 1% antibiotics. Prior to use in cell culture; the cell culture medium was depleted of endogenous exosomes present in FBS. Exosomes depleted media were prepared by 16 h of ultracentrifugation of cell culture medium supplemented with 50% FBS at 100, 000×g and filtered through 0.2 μm filter. Through out this process sterile conditions were maintained.
To isolate the exosomes from cells treated with DAC, cells were cultured in 10 cell culture dishes (150×25 mm), When the cells were at 70% confluency, the cells were washed with 1×PBS, re-fed with endogenous exosomes depleted media containing DAC (0.5 μM) and incubated for 24 h. Because of small production of exosomes from cultured cells, culture media from all the DAC treated plates were pooled for exosome isolation. All the exosome isolation procedures were done at 4° C. Culture supernatants were first centrifuged at 300×g for 10 min to pellet the cells. To remove the dead cells, supernatant was centrifuged at 2,000×g for 15 min (Sorvall Legend RTcentrifuge, Thermo Electron Corp. Waltham, Mass.). Supernatant was pipetted off and transferred to pre-cooled polycarbonate tubes appropriate for 50.1Ti fixed angle ultracentrifugation rotor (Beckman Coulter Inc., Fullerton, Calif., USA) and centrifuged at 10,000×g for 30 min to remove cell debris. Pellet was discarded and supernatant was aliquoted to several ultracentrifuge tubes and centrifuged at 110,000×g for 70 min to pellet exosomes. Supernatant was discarded. The pellet in each tube was re-suspended in 1 mL PBS and pooled in to single ultracentrifuge tube and centrifuged at 110,000×g for 70 min. […]
Five micro-liter of PFA fixed exosome suspension was dropped on 200 mesh formvar—carbon coated EM grid (grid size: 97 μm) (TEDPELLA, Redding, Calif., USA) and exosomes were allowed to adsorb to the grids by drying the suspension at room temperature for 20-30 min. […] From TEM images sizes of exosomes were measured using Image J software.

A short description of series [3]: DAC stability in liver extract. It is filed as in vitro ADME. The following applies: 15% w/v liver extract of athymic nude mice. As for the experimental part:
Freshly prepared DAC solution (50 μg/mL) or DAC loaded nanogel (equivalent drug concentration) was added in cell culture media (DMEM supplemented with 15% FBS and 1% penicillin-streptomycin), and incubated in cell culture incubator at 37° C. in a 5% CO2. Samples were incubated as 2 mL aliquots at 37° C., collected at various time points and lyophilized for 48 h at −48° C., 3.5 Pa, using FreeZone 4.5 (Labconco Corp., Kansas City, Mo.). DAC was extracted from lyophilized samples by adding 3 mL of methanol and kept on an orbital rotating shaker at 100 rpm in cold room overnight. 1 mL of methanolic extract was centrifuged at 14,000 rpm for 15 min at 4° C.; supernatant was collected and analyzed by HPLC. Identical protocol was followed for analyzing the stability of DAC in Mili Q water containing 15% heat inactivated or normal serum. Stability of DAC was also analyzed in 15% w/v liver extract of athymic nude mice using the indicated protocol.

For series [4] the following is noted: rat model; cited from earlier work.
Series [5] addresses T1, DNMT1 (Homo sapiens, UniProt P26358).
T1 construct: Whole cell lysates were collected at the end of each time point and western blot was done for the expression of DNMT1; endogenous in cells; host or cells: MCF-7/Adr cells
The experiment in a line: Western blot of DNMT1 depletion in MCF-7/Adr cells. It is filed as cell-based. The procedure:
Whole cell lysates, were made by lysing 1×10^6 treated or untreated cells, with RIPA buffer (Sigma-Aldrich, St. Louis, Mo.) containing 1× protease inhibitor cocktail (Calbiochem, Gibbstown, N.J.). Lysates were collected by centrifugation at 14,000 rpm for 15 min Protein concentration was determined by a bicinchoninic acid (BCA) assay kit (Pierce, Rockford, Ill.). 20-40 μg proteins of cell lysates were electrophoresed through 13.5% SD Spolyacrylamide gel or 4-15% linear pre-cast polyacrylamide gradient gel (Bio-Rad Laboratories, Hercules, Calif.) and transferred to polyvinylidene difluoride (PVDF) membranes (GE Healthcare Bio-sciences, corp., Piscataway, N.J.). The blots were probed for mouse monoclonal p21 (Cell Signaling Technology, Inc., Danvers, Mass.), mouse monoclonal DNMT1 (Abcam Inc., Cambridge, Mass.), and mouse monoclonal anti-actin (Sigma-Aldrich, St. Louis, Mo.). For detection of bound antibody, PVDF membrane was incubated with horse radish—tagged, goat anti-mouse antibody. After incubation membrane was washed with TBST, and stained with enhanced chemiluminescence (ECL) reagent or ECL plus reagent (GE Healthcare Bio-sciences, corp., Piscataway, N.J.) according to manufacturer protocol. […]
(Immunoblotting shows a protein as a band on a membrane.)

Series [6] concerns P-gp. Kind of series: Western blot of P-gp expression in MCF-7/Adr cells. It is filed as cell-based, human. The source says: Proteins ([…]) from DAC treated or untreated cell lysates in RIPA buffer were probed for mouse monoclonal P-glycoprotein (calbiochem) and mouse anti-actin (Sigma-Aldrich, St. Louis, Mo.). Blotting and detection of the indicated proteins were done as per standard western blot protocol.

The nature of series [7]: DAC stability in cell culture media. It is filed as physicochemical. Conditions: 50 μg/mL, DMEM with 15% FBS, 37° C.
Procedure: Samples were incubated as 2 mL aliquots at 37° C., collected at various time points and lyophilized. To extract DAC from lyophilized samples 3 mL of methanol was added and kept on orbital rotating shaker at 100 rpm in cold room overnight.
Series [8] deals with p21. Kind of series: Western blotting of p21. It is filed as cell-based, human. The following applies: MCF-7/Adr. As for the experimental part:
Whole cell lysates, were made by lysing 1×10^6 treated or untreated cells, with RIPA buffer (Sigma-Aldrich, St. Louis, Mo.) containing 1× protease inhibitor cocktail (Calbiochem, Gibbstown, N.J.). Lysates were collected by centrifugation at 14,000 rpm for 15 min Protein concentration was determined by a bicinchoninic acid (BCA) assay kit (Pierce, Rockford, Ill.). 20-40 μg proteins of cell lysates were electrophoresed through 13.5% SD Spolyacrylamide gel or 4-15% linear pre-cast polyacrylamide gradient gel (Bio-Rad Laboratories, Hercules, Calif.) and transferred to polyvinylidene difluoride (PVDF) membranes (GE Healthcare Bio-sciences, corp., Piscataway, N.J.). The blots were probed for mouse monoclonal p21 (Cell Signaling Technology, Inc., Danvers, Mass.), mouse monoclonal DNMT1 (Abcam Inc., Cambridge, Mass.), and mouse monoclonal anti-actin (Sigma-Aldrich, St. Louis, Mo.). For detection of bound antibody, PVDF membrane was incubated with horse radish—tagged, goat anti-mouse antibody. After incubation membrane was washed with TBST, and stained with enhanced chemiluminescence (ECL) reagent or ECL plus reagent (GE Healthcare Bio-sciences, corp., Piscataway, N.J.) according to manufacturer protocol.

T1 sequence (P26358 whole entry): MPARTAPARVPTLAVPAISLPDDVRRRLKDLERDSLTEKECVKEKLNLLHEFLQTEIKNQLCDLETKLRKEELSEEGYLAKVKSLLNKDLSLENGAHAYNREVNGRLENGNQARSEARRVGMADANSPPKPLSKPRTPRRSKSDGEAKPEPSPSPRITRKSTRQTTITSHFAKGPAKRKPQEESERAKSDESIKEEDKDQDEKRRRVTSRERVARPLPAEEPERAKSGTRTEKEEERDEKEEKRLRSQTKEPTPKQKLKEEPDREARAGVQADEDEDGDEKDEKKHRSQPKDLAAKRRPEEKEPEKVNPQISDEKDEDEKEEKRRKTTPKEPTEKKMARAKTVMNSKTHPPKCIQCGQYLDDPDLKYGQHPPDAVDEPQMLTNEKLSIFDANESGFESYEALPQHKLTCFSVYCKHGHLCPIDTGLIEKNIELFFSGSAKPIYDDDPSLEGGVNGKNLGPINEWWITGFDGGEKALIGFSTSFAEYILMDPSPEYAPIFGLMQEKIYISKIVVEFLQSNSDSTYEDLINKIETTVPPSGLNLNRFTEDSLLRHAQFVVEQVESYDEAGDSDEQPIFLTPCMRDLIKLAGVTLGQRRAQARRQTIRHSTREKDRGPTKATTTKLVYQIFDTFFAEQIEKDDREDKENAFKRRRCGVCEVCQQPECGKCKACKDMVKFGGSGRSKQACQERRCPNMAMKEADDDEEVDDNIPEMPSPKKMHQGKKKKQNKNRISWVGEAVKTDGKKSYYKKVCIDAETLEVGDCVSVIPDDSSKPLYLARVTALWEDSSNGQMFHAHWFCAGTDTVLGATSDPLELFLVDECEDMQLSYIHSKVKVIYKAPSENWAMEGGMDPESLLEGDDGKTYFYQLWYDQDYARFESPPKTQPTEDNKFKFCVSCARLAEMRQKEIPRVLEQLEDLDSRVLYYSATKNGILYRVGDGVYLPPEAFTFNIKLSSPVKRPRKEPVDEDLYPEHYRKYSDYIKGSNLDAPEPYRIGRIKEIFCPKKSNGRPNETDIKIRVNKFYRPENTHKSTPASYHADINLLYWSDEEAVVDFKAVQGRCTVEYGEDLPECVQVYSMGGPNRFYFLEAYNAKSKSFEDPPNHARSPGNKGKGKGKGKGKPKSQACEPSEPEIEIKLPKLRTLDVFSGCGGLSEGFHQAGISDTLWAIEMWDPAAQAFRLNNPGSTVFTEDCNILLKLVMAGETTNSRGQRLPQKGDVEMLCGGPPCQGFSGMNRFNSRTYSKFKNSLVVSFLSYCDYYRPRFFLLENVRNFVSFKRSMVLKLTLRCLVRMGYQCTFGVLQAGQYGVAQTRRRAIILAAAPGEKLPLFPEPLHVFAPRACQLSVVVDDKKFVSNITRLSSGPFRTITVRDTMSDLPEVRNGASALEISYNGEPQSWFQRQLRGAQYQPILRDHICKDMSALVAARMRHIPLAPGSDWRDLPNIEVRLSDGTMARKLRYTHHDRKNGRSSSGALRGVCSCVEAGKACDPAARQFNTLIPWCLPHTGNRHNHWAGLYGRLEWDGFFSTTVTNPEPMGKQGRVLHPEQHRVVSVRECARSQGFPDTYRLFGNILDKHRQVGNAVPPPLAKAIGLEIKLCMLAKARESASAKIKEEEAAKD

As for `Nc1ncn([C@H]2C[C@H](O)[C@@H](CO)O2)c(=O)n1` [DAC, 5-aza-2′-deoxycytidine], in series [1] (in humans), the Half-life is 10 to 35 min. Moreover, in series [1] (in vivo), the Clearance entry is given as “very high clearance”. Further, in series [2], the “Hydrodynamic diameter of exosomes” value is reported as 495 nm and the PI of exosomes stood at 0.61. The “Exosome size by transmission electron micrograph” value in series [2] (in nm (unit assumed)) worked out at 97.2±8.0. The “Complete degradation of DAC, time post incubation” value in series [3] turned out to be 60 min. Moreover, the Carcinogenicity entry in series [4] is reported as “has not”. For the same molecule, in series [5] (50 ng/mL), the “Duration of DNMT1 depletion” value is 24 h. The “DNMT1 levels vs untreated” value in series [5] (2, 3 and 5 days post treatment) was “No difference in DNMT1 levels”. Also, in series [6] (day 1), the “Decrease in P-gp protein expression vs untreated cells” value is on record as 45%. Besides, the P-gp expression result in series [6] (day 3) is on record as “returned to normal levels”. Besides, the “No detectable levels of DAC at” value in series [7] is listed as 8 h. The “DAC degraded within an hour” value in series [7] (1 h) was found to be 60%. In addition, the “p21 protein expression (immunoblotting)” value in series [8] was “significant increase”.
